Experimental findings from patent US8614201B2 (Janssen Pharmaceutica NV, priority 2009, dated 2013) are described below.

Usually IC50 stands for the concentration needed to halve the response being measured. Higher therefore signals weaker potency in that assay.

Molecules are shown by their SMILES.

This experiment deals with Human TRPA1 (Homo sapiens, UniProt O75762). Nature of the experiment: Alternative TRPA1 Ca2+ fluorometry assay (hTRPA1/TREx-HEK293 cells, Fluo-4, FDSS 6000). Details: expressed in transfected cells. As to conditions: Fluo-4-AM, agonist 6,11-dihydro-5H-dibenzo[b,e]azepine-10-carboxylic acid methyl ester 25 nM, procedure used for Examples 184, 190 to 192, 194 to 316. The class given is cell-based. In a few lines: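 Tetracycline-induced (50 ng/ml, 24 h) hTRPA1/TREx-HEK293 cells were loaded with Fluo-4-AM and probenecid. Compound (1% DMSO final) was added after a 12 s baseline and the Ca2+ signal followed for 14 min, then 25 nM TRPA1 agonist dibenzazepine carboxylic acid methyl ester was applied. Signal is Em540 (ex 488 nm) relative to the first baseline reading.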
Sequence of Human TRPA1 (O75762 whole entry): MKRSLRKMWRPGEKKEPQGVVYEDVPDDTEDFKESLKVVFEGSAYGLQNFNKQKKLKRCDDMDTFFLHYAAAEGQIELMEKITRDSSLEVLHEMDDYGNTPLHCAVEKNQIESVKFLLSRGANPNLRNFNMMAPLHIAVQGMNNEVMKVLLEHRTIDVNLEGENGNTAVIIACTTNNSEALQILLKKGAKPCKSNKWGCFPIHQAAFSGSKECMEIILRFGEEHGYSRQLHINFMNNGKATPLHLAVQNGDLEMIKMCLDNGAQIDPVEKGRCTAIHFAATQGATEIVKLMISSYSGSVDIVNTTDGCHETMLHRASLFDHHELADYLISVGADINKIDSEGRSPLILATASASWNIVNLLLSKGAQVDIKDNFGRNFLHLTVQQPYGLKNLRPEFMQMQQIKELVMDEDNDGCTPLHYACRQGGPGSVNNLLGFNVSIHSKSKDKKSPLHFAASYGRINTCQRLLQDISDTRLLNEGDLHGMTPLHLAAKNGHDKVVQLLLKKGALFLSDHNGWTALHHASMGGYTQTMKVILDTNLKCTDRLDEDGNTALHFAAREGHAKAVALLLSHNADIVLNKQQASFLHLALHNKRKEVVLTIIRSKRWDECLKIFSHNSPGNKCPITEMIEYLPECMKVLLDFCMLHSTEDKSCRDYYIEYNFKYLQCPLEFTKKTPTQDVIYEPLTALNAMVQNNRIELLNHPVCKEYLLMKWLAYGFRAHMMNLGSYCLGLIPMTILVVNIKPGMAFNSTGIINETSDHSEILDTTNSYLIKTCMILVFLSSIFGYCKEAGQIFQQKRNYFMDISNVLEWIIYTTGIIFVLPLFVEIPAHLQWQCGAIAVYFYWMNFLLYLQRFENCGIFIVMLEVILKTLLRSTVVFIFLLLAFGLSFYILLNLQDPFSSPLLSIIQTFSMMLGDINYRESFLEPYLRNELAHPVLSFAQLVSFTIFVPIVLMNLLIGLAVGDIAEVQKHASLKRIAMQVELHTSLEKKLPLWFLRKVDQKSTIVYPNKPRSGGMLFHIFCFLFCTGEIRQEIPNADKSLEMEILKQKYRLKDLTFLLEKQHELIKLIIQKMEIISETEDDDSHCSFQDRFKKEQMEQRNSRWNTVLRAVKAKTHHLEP
As for `O=C(NCc1cc(-c2ccc(C(F)(F)F)cc2)nc(N2CCN(c3ccccc3F)CC2)n1)[C@@H]1CCCN1S(=O)(=O)c1ccc(F)cc1Cl` [Example 252, 1-(2-Chloro-4-fluoro-benzenesulfonyl)-pyrrolidine-2S-carboxylic acid [2-[4-(2-fluoro-phenyl)-piperazin-1-yl]-6-(4-trifluoromethyl-phenyl)-pyrimidin-4-ylmethyl]-amide], the IC50 was > 10 µM. The result for `COc1cccc(S(=O)(=O)N2CCC[C@H]2C(=O)NCc2cc(-c3ccc(C(F)(F)F)cc3)nc(N3CCN(c4ccccc4F)CC3)n2)c1` [Example 253, 1-(3-Methoxy-benzenesulfonyl)-pyrrolidine-2S-carboxylic acid [2-[4-(2-fluoro-phenyl)-piperazin-1-yl]-6-(4-trifluoromethyl-phenyl)-pyrimidin-4-ylmethyl]-amide] reads > 10 µM. The result for `O=C(NCc1cc(-c2ccc(C(F)(F)F)cc2)nc(N2CCN(c3ccccc3F)CC2)n1)[C@@H]1CCCN1S(=O)(=O)c1cccc(Cl)c1` [Example 254, 1-(3-Chloro-benzenesulfonyl)-pyrrolidine-2S-carboxylic acid [2-[4-(2-fluoro-phenyl)-piperazin-1-yl]-6-(4-trifluoromethyl-phenyl)-pyrimidin-4-ylmethyl]-amide] reads > 10 µM; that for `COc1ccc(S(=O)(=O)N2CCC[C@H]2C(=O)NCc2cc(-c3ccc(C(F)(F)F)cc3)nc(N3CCN(c4ccccc4F)CC3)n2)cc1` [Example 255, 1-(4-Methoxy-benzenesulfonyl)-pyrrolidine-2S-carboxylic acid [2-[4-(2-fluoro-phenyl)-piperazin-1-yl]-6-(4-trifluoromethyl-phenyl)-pyrimidin-4-ylmethyl]-amide], > 10 µM; that for `Cc1ccc(F)cc1S(=O)(=O)N1CCC[C@H]1C(=O)NCc1cc(-c2ccc(C(F)(F)F)cc2)nc(N2CCN(c3ccccc3F)CC2)n1` [Example 256, 1-(5-Fluoro-2-methyl-benzenesulfonyl)-pyrrolidine-2-carboxylic acid [2-[4-(2-fluoro-phenyl)-piperazin-1-yl]-6-(4-trifluoromethyl-phenyl)-pyrimidin-4-ylmethyl]-amide], > 10 µM.

Take `O=C(NCc1cc(-c2ccc(C(F)(F)F)cc2)nc(N2CCN(c3ccccc3F)CC2)n1)[C@@H]1CCCN1S(=O)(=O)c1cc(Cl)ccc1F` [Example 257, 1-(5-Chloro-2-fluoro-benzenesulfonyl)-pyrrolidine-2S-carboxylic acid [2-[4-(2-fluoro-phenyl)-piperazin-1-yl]-6-(4-trifluoromethyl-phenyl)-pyrimidin-4-ylmethyl]-amide]: the IC50 is > 10 µM. The result for `O=C(NCc1cc(-c2ccc(C(F)(F)F)cc2)nc(N2CCN(c3ccccc3F)CC2)n1)[C@@H]1CCCN1S(=O)(=O)c1ccc(F)c(F)c1` [Example 258, 1-(3,4-Difluoro-benzenesulfonyl)-pyrrolidine-2S-carboxylic acid [2-[4-(2-fluoro-phenyl)-piperazin-1-yl]-6-(4-trifluoromethyl-phenyl)-pyrimidin-4-ylmethyl]-amide] reads 0.324 µM; that for `O=C(NCc1cc(-c2ccc(C(F)(F)F)cc2)nc(N2CCN(c3ccccc3F)CC2)n1)[C@@H]1CCCN1S(=O)(=O)c1ccc(F)c(Cl)c1` [Example 259, 1-(3-Chloro-4-fluoro-benzenesulfonyl)-pyrrolidine-2S-carboxylic acid [2-[4-(2-fluoro-phenyl)-piperazin-1-yl]-6-(4-trifluoromethyl-phenyl)-pyrimidin-4-ylmethyl]-amide], 3.55 µM. With `CC(C)c1ccc(S(=O)(=O)N2CCC[C@H]2C(=O)NCc2cc(-c3ccc(C(F)(F)F)cc3)nc(N3CCN(c4ccccc4F)CC3)n2)cc1` [Example 260, 1-(4-Isopropyl-benzenesulfonyl)-pyrrolidine-2S-carboxylic acid [2-[4-(2-fluoro-phenyl)-piperazin-1-yl]-6-(4-trifluoromethyl-phenyl)-pyrimidin-4-ylmethyl]-amide] the figure was > 10 µM; with `O=C(NCc1cc(-c2ccc(C(F)(F)F)cc2)nc(N2CCN(c3ccccc3F)CC2)n1)[C@@H]1CCCN1S(=O)(=O)c1ccc(F)c(F)c1F` [Example 261, 1-(2,3,4-Trifluoro-benzenesulfonyl)-pyrrolidine-2S-carboxylic acid [2-[4-(2-fluoro-phenyl)-piperazin-1-yl]-6-(4-trifluoromethyl-phenyl)-pyrimidin-4-ylmethyl]-amide], 2.69 µM; with `Cc1c(Cl)cccc1S(=O)(=O)N1CCC[C@H]1C(=O)NCc1cc(-c2ccc(C(F)(F)F)cc2)nc(N2CCN(c3ccccc3F)CC2)n1` [Example 262, 1-(3-Chloro-2-methyl-benzenesulfonyl)-pyrrolidine-2S-carboxylic acid [2-[4-(2-fluoro-phenyl)-piperazin-1-yl]-6-(4-trifluoromethyl-phenyl)-pyrimidin-4-ylmethyl]-amide], > 10 µM. With `O=C(NCc1cc(-c2ccc(C(F)(F)F)cc2)nc(N2CCN(c3ccccc3F)CC2)n1)[C@@H]1CCCN1S(=O)(=O)c1ccc(Cl)s1` [Example 263, 1-(5-Chloro-thiophene-2-sulfonyl)-pyrrolidine-2S-carboxylic acid [2-[4-(2-fluoro-phenyl)-piperazin-1-yl]-6-(4-trifluoromethyl-phenyl)-pyrimidin-4-ylmethyl]-amide] the figure was 0.191 µM. As for `O=C(NCc1cc(-c2ccc(C(F)(F)F)cc2)nc(N2CCN(c3ccccc3F)CC2)n1)[C@@H]1CCCN1S(=O)(=O)c1cccs1` [Example 264, 1-(Thiophene-2-sulfonyl)-pyrrolidine-2S-carboxylic acid [2-[4-(2-fluoro-phenyl)-piperazin-1-yl]-6-(4-trifluoromethyl-phenyl)-pyrimidin-4-ylmethyl]-amide], the half-inhibitory concentration (IC50) is ~0.933 µM.

Regarding `CCCc1ccc(S(=O)(=O)N2CCC[C@H]2C(=O)NCc2cc(-c3ccc(C(F)(F)F)cc3)nc(N3CCN(c4ccccc4F)CC3)n2)cc1` [Example 265, 1-(4-Propyl-benzenesulfonyl)-pyrrolidine-2S-carboxylic acid [2-[4-(2-fluoro-phenyl)-piperazin-1-yl]-6-(4-trifluoromethyl-phenyl)-pyrimidin-4-ylmethyl]-amide], the IC50 is > 10 µM. The result for `Cc1ccc(C)c(S(=O)(=O)N2CCC[C@H]2C(=O)NCc2cc(-c3ccc(C(F)(F)F)cc3)nc(N3CCN(c4ccccc4F)CC3)n2)c1` [Example 266, 1-(2,5-Dimethyl-benzenesulfonyl)-pyrrolidine-2S-carboxylic acid [2-[4-(2-fluoro-phenyl)-piperazin-1-yl]-6-(4-trifluoromethyl-phenyl)-pyrimidin-4-ylmethyl]-amide] reads > 10 µM; that for `O=C(NCc1cc(-c2ccc(C(F)(F)F)cc2)nc(N2CCN(c3ccccc3F)CC2)n1)[C@@H]1CCCN1S(=O)(=O)c1ccc(F)cc1F` [Example 267, 1-(2,4-Difluoro-benzenesulfonyl)-pyrrolidine-2S-carboxylic acid [2-[4-(2-fluoro-phenyl)-piperazin-1-yl]-6-(4-trifluoromethyl-phenyl)-pyrimidin-4-ylmethyl]-amide], 7.94 µM. The result for `O=C(NCc1cc(-c2ccc(C(F)(F)F)cc2)nc(N2CCN(c3ccccc3F)CC2)n1)[C@@H]1CCCN1S(=O)(=O)c1ccccc1Cl` [Example 268, 1-(2-Chloro-benzenesulfonyl)-pyrrolidine-2S-carboxylic acid [2-[4-(2-fluoro-phenyl)-piperazin-1-yl]-6-(4-trifluoromethyl-phenyl)-pyrimidin-4-ylmethyl]-amide] reads > 10 µM; that for `O=C(NCc1cc(-c2ccc(C(F)(F)F)cc2)nc(N2CCN(c3ccccc3F)CC2)n1)[C@@H]1CCCN1S(=O)(=O)c1ccc(Cl)cc1` [Example 269, 1-(4-Chloro-benzenesulfonyl)-pyrrolidine-2S-carboxylic acid [2-[4-(2-fluoro-phenyl)-piperazin-1-yl]-6-(4-trifluoromethyl-phenyl)-pyrimidin-4-ylmethyl]-amide], 0.229 µM. The result for `O=C(NCc1cc(-c2ccc(C(F)(F)F)cc2)nc(N2CCN(c3ccccc3F)CC2)n1)[C@@H]1CCCN1S(=O)(=O)c1cccc(F)c1` [Example 270, 1-(3-Fluoro-benzenesulfonyl)-pyrrolidine-2S-carboxylic acid [2-[4-(2-fluoro-phenyl)-piperazin-1-yl]-6-(4-trifluoromethyl-phenyl)-pyrimidin-4-ylmethyl]-amide] reads 0.692 µM; that for `Cc1cccc(S(=O)(=O)N2CCC[C@H]2C(=O)NCc2cc(-c3ccc(C(F)(F)F)cc3)nc(N3CCN(c4ccccc4F)CC3)n2)c1` [Example 271, 1-(Toluene-3-sulfonyl)-pyrrolidine-2S-carboxylic acid [2-[4-(2-fluoro-phenyl)-piperazin-1-yl]-6-(4-trifluoromethyl-phenyl)-pyrimidin-4-ylmethyl]-amide], > 10 µM; that for `O=C(NCc1cc(-c2ccc(C(F)(F)F)cc2)nc(N2CCN(c3ccccc3F)CC2)n1)[C@@H]1CCCN1S(=O)(=O)c1ccccc1` [Example 272, 1-Benzenesulfonyl-pyrrolidine-2S-carboxylic acid [2-[4-(2-fluoro-phenyl)-piperazin-1-yl]-6-(4-trifluoromethyl-phenyl)-pyrimidin-4-ylmethyl]-amide], ~0.436 µM. In the case of `O=C(NCc1cc(-c2ccc(C(F)(F)F)cc2)nc(N2CCN(c3ccccc3F)CC2)n1)[C@@H]1CCCN1S(=O)(=O)c1cccc(Cl)c1F` [Example 273, 1-(3-Chloro-2-fluoro-benzenesulfonyl)-pyrrolidine-2S-carboxylic acid [2-[4-(2-fluoro-phenyl)-piperazin-1-yl]-6-(4-trifluoromethyl-phenyl)-pyrimidin-4-ylmethyl]-amide], the IC50 was > 10 µM.
